# Measurements published in ChEMBL document CHEMBL3758108, “Synthesis and antiproliferative evaluation of novel 1,2,4-triazole derivatives incorporating benzisoselenazolone scaffold” (Bioorg Med Chem Lett, 2016).
# Key:
# A549 = assay: Antiproliferative activity against human A549 cells after 48 hrs by CCK8 assay; format: functional, cell-based; details: A549, 48 h
# [1] = Antiproliferative activity against human SMMC7721 cells after 48 hrs by CCK8 assay; format: functional, cell-based; details: SMMC-7721, 48 h
# HeLa = assay: Antiproliferative activity against human HeLa cells after 48 hrs by CCK8 assay; format: functional, cell-based
# L929 = assay: Antiproliferative activity against mouse L929 cells after 48 hrs by CCK8 assay; format: cell-based; details: L929, 48 h
Compound,IC50 (A549),IC50 [1],IC50 (HeLa),IC50 (L929)
O=c1c2ccccc2[se]n1-c1nc(SCc2ccccc2)n[nH]1,> 50 µM,32 µM,> 50 µM,> 50 µM
CC(C)Sc1n[nH]c(-n2[se]c3ccccc3c2=O)n1,36.6 µM,6.01 µM,34.6 µM,37.1 µM
Cc1ccc(CSc2n[nH]c(-n3[se]c4ccccc4c3=O)n2)cc1,> 50 µM,> 50 µM,34.8 µM,> 50 µM
O=c1c2ccccc2[se]n1CCn1[se]c2ccccc2c1=O [ETHASELEN],3.26 µM,10.7 µM,15.9 µM,> 50 µM
CCCCCCSc1n[nH]c(-n2[se]c3ccccc3c2=O)n1,20.3 µM,22.4 µM,35.9 µM,39.3 µM
O=c1c2ccccc2[se]n1-c1nc(SCc2ccc(Cl)cc2)n[nH]1,42.1 µM,33.9 µM,40.9 µM,39.5 µM
O=c1c2ccccc2[se]n1-c1nc(SCc2ccc([N+](=O)[O-])cc2)n[nH]1,9.14 µM,8.91 µM,3.94 µM,7.43 µM
Cc1ccccc1CSc1n[nH]c(-n2[se]c3ccccc3c2=O)n1,9.72 µM,36.2 µM,6.13 µM,15.6 µM
CC(C)CSc1n[nH]c(-n2[se]c3ccccc3c2=O)n1,37.8 µM,35 µM,34.9 µM,33.4 µM
CCSc1n[nH]c(-n2[se]c3ccccc3c2=O)n1,39.6 µM,10 µM,14.1 µM,35.2 µM
Cc1cccc(CSc2n[nH]c(-n3[se]c4ccccc4c3=O)n2)c1,12.4 µM,9.04 µM,42.6 µM,> 50 µM
O=c1[nH]cc(F)c(=O)[nH]1 [FLUOROURACIL],,,17.2 µM,2.98 µM
CCCSc1n[nH]c(-n2[se]c3ccccc3c2=O)n1,45.5 µM,6.02 µM,30.4 µM,31.8 µM
CCCCCSc1n[nH]c(-n2[se]c3ccccc3c2=O)n1,21.1 µM,31.4 µM,30.3 µM,33.5 µM
O=c1c2ccccc2[se]n1-c1nc(SCc2ccc(F)cc2)n[nH]1,36.4 µM,46.1 µM,> 50 µM,> 50 µM
CCCCSc1n[nH]c(-n2[se]c3ccccc3c2=O)n1,12.5 µM,16.8 µM,32.9 µM,30.4 µM
